Laboratory results reported in publication PMC9848257, “Design and synthesis of novel rigid dibenzo[b,f]azepines through ring closure technique as promising anticancer candidates against leukaemia and acting as selective topoisomerase II inhibitors and DNA intercalators” (Journal of Enzyme Inhibition and Medicinal Chemistry, 2023).

How the values were obtained:
Format in all cases: cell-based
HL-60(TB) = test: NCI-60 one-dose screen, HL-60(TB); details: Homo sapiens, leukaemia, single dose 10 μM, read-out: Growth inhibition %
Procedure: (§1) Anti-proliferative effects of the counterparts 4a–g and 5a–g were screened against 60 human cancer cell lines, following the Developmental Therapeutics Program protocol, National Cancer Institute[35].
(§2) The anti-tumour activity of the fourteen synthesised congeners was investigated at the NCI against a panel of 60 cancer cell lines (NCI-60 Cell One-Dose Screen). The tested dibenzo[b,f]azepine derivatives were screened at a single dose level (10 μM), Table 1.

MOLT-4 = test: NCI-60 one-dose screen, MOLT-4; details: Homo sapiens; MOLT-4, leukaemia; single dose 10 μM; read-out: Growth inhibition %
Procedure: as §1, §2

RPMI-8226 = test: NCI-60 one-dose screen, RPMI-8226; details: Homo sapiens; RPMI-8226, leukaemia; single dose 10 μM; read-out: Growth inhibition %
Procedure: as §1, §2

EKVX = test: NCI-60 one-dose screen, EKVX; details: Homo sapiens, non-small cell lung cancer, single dose 10 μM, read-out: Growth inhibition %
Procedure: as §1, §2

HOP-62 = test: NCI-60 one-dose screen, HOP-62; details: Homo sapiens; HOP-62, non-small cell lung cancer; single dose 10 μM; read-out: Growth inhibition %
Procedure: as §1, §2

HOP-92 = test: NCI-60 one-dose screen, HOP-92; details: Homo sapiens; HOP-92, non-small cell lung cancer; single dose 10 μM; read-out: Growth inhibition %
Procedure: as §1, §2

NCI-H23 = test: NCI-60 one-dose screen, NCI-H23; details: Homo sapiens; NCI-H23, non-small cell lung cancer; single dose 10 μM; read-out: Growth inhibition %
Procedure: as §1, §2

NCI-H322M = test: NCI-60 one-dose screen, NCI-H322M; details: Homo sapiens, non-small cell lung cancer, single dose 10 μM, read-out: Growth inhibition %
Procedure: as §1, §2

NCI-H460 = test: NCI-60 one-dose screen, NCI-H460; details: Homo sapiens; NCI-H460, non-small cell lung cancer; single dose 10 μM; read-out: Growth inhibition %
Procedure: as §1, §2

COLO 205 = test: NCI-60 one-dose screen, COLO 205; details: Homo sapiens; COLO 205, colon cancer; single dose 10 μM; read-out: Growth inhibition %
Procedure: as §1, §2

HCT-116 = test: NCI-60 one-dose screen, HCT-116; details: Homo sapiens; HCT-116, colon cancer; single dose 10 μM; read-out: Growth inhibition %
Procedure: as §1, §2

HCT-15 = test: NCI-60 one-dose screen, HCT-15; details: Homo sapiens; HCT-15, colon cancer; single dose 10 μM; read-out: Growth inhibition %
Procedure: as §1, §2

HT29 = test: NCI-60 one-dose screen, HT29; details: Homo sapiens, HT-29; HT29, colon cancer; single dose 10 μM; read-out: Growth inhibition %
Procedure: as §1, §2

SW-620 = test: NCI-60 one-dose screen, SW-620; details: Homo sapiens; SW-620, colon cancer; single dose 10 μM; read-out: Growth inhibition %
Procedure: as §1, §2

SF-268 = test: NCI-60 one-dose screen, SF-268; details: Homo sapiens; SF-268, CNS cancer; single dose 10 μM; read-out: Growth inhibition %
Procedure: as §1, §2

SF-539 = test: NCI-60 one-dose screen, SF-539; details: Homo sapiens; SF-539, CNS cancer; single dose 10 μM; read-out: Growth inhibition %
Procedure: as §1, §2

MALME-3M = test: NCI-60 one-dose screen, MALME-3M; details: Homo sapiens, melanoma, single dose 10 μM, read-out: Growth inhibition %
Procedure: as §1, §2

M14 = test: NCI-60 one-dose screen, M14; details: Homo sapiens; M14, melanoma; single dose 10 μM; read-out: Growth inhibition %
Procedure: as §1, §2

SK-MEL-2 = test: NCI-60 one-dose screen, SK-MEL-2; details: Homo sapiens; SK-MEL-2, melanoma; single dose 10 μM; read-out: Growth inhibition %
Procedure: as §1, §2

SK-MEL-28 = test: NCI-60 one-dose screen, SK-MEL-28; details: Homo sapiens; SK-MEL-28, melanoma; single dose 10 μM; read-out: Growth inhibition %
Procedure: as §1, §2

OVCAR-3 = test: NCI-60 one-dose screen, OVCAR-3; details: Homo sapiens; OVCAR-3, ovarian cancer; single dose 10 μM; read-out: Growth inhibition %
Procedure: as §1, §2

OVCAR-5 = test: NCI-60 one-dose screen, OVCAR-5; details: Homo sapiens; OVCAR-5, ovarian cancer; single dose 10 μM; read-out: Growth inhibition %
Procedure: as §1, §2

OVCAR-8 = test: NCI-60 one-dose screen, OVCAR-8; details: Homo sapiens; OVCAR-8, ovarian cancer; single dose 10 μM; read-out: Growth inhibition %
Procedure: as §1, §2

SK-OV-3 = test: NCI-60 one-dose screen, SK-OV-3; details: Homo sapiens; SK-OV-3, ovarian cancer; single dose 10 μM; read-out: Growth inhibition %
Procedure: as §1, §2

786-0 = test: NCI-60 one-dose screen, 786-0; details: Homo sapiens; 786-0, renal cancer; single dose 10 μM; read-out: Growth inhibition %
Procedure: as §1, §2

A498 = test: NCI-60 one-dose screen, A498; details: Homo sapiens; A498, renal cancer; single dose 10 μM; read-out: Growth inhibition %
Procedure: as §1, §2

ACHN = test: NCI-60 one-dose screen, ACHN; details: Homo sapiens, renal cancer, single dose 10 μM, read-out: Growth inhibition %
Procedure: as §1, §2

RXF 393 = test: NCI-60 one-dose screen, RXF 393; details: Homo sapiens; RXF 393, renal cancer; single dose 10 μM; read-out: Growth inhibition %
Procedure: as §1, §2

UO-31 = test: NCI-60 one-dose screen, UO-31; details: Homo sapiens; UO-31, renal cancer; single dose 10 μM; read-out: Growth inhibition %
Procedure: as §1, §2

PC-3 = test: NCI-60 one-dose screen, PC-3; details: Homo sapiens; PC-3, prostate cancer; single dose 10 μM; read-out: Growth inhibition %
Procedure: as §1, §2

DU-145 = test: NCI-60 one-dose screen, DU-145; details: Homo sapiens; DU-145, prostate cancer; single dose 10 μM; read-out: Growth inhibition %
Procedure: as §1, §2

MCF-7 = test: NCI-60 one-dose screen, MCF-7; details: Homo sapiens, MCF7; MCF-7, breast cancer; single dose 10 μM; read-out: Growth inhibition %
Procedure: as §1, §2

MDA-MB-231-ATCC = test: NCI-60 one-dose screen, MDA-MB-231-ATCC; details: Homo sapiens, breast cancer, single dose 10 μM, read-out: Growth inhibition %
Procedure: as §1, §2

HS 578 T = test: NCI-60 one-dose screen, HS 578 T; details: Homo sapiens, breast cancer, single dose 10 μM, read-out: Growth inhibition %
Procedure: as §1, §2

Measured: inhibition at 10 µM

O=C(NNC(=O)N1c2ccccc2C=Cc2ccccc21)c1ccc2ccccc2c1 [Compound 4f, N′-(2-Naphthoyl)-5H-dibenzo[b,f]azepine-5-carbohydrazide]
11.4%: HT29
10%: HL-60(TB)
12%: UO-31
14%: MCF-7
18.6%: HOP-92
11%: EKVX
25.1%: PC-3
< 10%: all other assays above

O=C(Cc1ccccc1)NNC(=O)N1c2ccccc2C=Cc2ccccc21 [Compound 4g, N′-(2-Phenylacetyl)-5H-dibenzo[b,f]azepine-5-carbohydrazide]
13.8%: EKVX
< 10%: all other assays above
